Literature values, collected in patent US9304123B2, “Biomarkers used to detect and monitor neurological autoimmune diseases” (NUtech Ventures, priority 2012, dated 2016).

Tested on: EAE
Settings: animal models

CN(C)C(=N)N=C(N)N [Metformin]
effect on EAE progression: attenuate EAE progression
